Patent US7442788B2, “Antisense molecules and method of controlling expression of gene function by using the same” (Japan Science and Technology Corporation, priority 2001, dated 2008)
Where “and” joins values, the source holds several entries; their conditions need not be identical. Identical values can stand only once.

Columns and labels:
[1] = Circular dichroism (CD) spectrum, molar ellipticity at about 270 nm as measure of base moiety orientation (syn/anti); format: physicochemical; details: for Δ[θ]ext: phosphate buffer minus borate buffer; for change of [θ]ext / CD peak from phosphate buffer to borate buffer (borax): phosphate vs borate buffer
Source text: The molar ellipticity ([θ]max) at about 270 nm in the CD spectrum of a nucleoside reflects two factors, namely the orientation of the base moiety to the furanose moiety and the puckering of the furanose ring. It is known that the molar ellipticity at about 270 nm markedly decreases in the syn orientation as compared with the anti orientation. […]
[…] […] The rate of syn orientation induction in Urd in the presence of boric acid was smaller as compared with IPU but this can be explained by the presence of an equilibrium between the borate ester formation and the dissociation.
Specifically, CD spectra were measured with Urd, 5′-aminouridine (5′-NH2-Urd) and 5′-aminoisopropylideneuridine (5′-NH2-IPU) in phosphate buffer (pH 7.2) and with 5′-NH2-Urd in borate buffer (pH 7.2) for the investigation of uracil moiety orientations. […] This is presumably due to a syn orientation-inducing effect of hydrogen bond formation between the oxygen atom of the 2-position carbonyl group of the nucleoside base moiety and the 5′-position amino hydrogen atom. Under the measurement conditions in this case, the 5′-position amino group of 5′-NH2-Urd occurs in an ammonium ion state and presumably serves as a good hydrogen bond donor. […] This is probably due to two synergistic effects, namely the fixation of the sugar moiety to the 2′,3′-planar structure and the hydrogen bond formation between the 5′-position amino group and the 2-position carbonyl group of the base moiety.
Then, on the supposition that Urd in phosphate buffer ([θ]max value=9700) is in an ideal 100% anti orientation and 5′-NH2-IPU in phosphate buffer ([θ]max value=1200) in an ideal 100% syn orientation, the orientations of the base moiety (uracil) of uridine and uridine derivatives (5′-NH2-Urd, IPU, 5′-NH2-IPU) were evaluated under different conditions (in phosphate buffer, in borate buffer).

[2] = system: polyadenylic acid (poly(A)); test: Complex formation by continuous absorbance (260 nm) plotting, control by borax and sugars; format: binding
Experimental: Therefore, poly(Nγ-(5′-deoxy-5′-uridyl)-L-glutamine) PRNA1 (Production Example 1) was examined for its complex forming ability using polyadenylic acid (poly(A)) as its complementary strand. […] Then, borax was added to this PRNA1- and poly(A)-containing phosphate buffer solution, whereupon the absorbance (260 nm) increased in a concentration-dependent manner until a certain concentration, as shown by the plots ▪ in FIG. 20(a). Upon addition of borax in an amount about 3 times the amount of the PRNA1, the absorbance (260 nm) increased to be the original absorbance prior to addition of poly(A). […] Furthermore, this borate ester was in equilibrium with its anionic form even at pH 7.2.

[3] = system: d(A)12; test: Melting temperature (Tm) of dodecameric chimera nucleic acid with complementary DNA; format: binding
Experimental: Using the above dodecameric chimera nucleic acid and a DNA having a complementary base sequence, the melting temperature Tm was measured in phosphate buffer allowing predominance of the anti orientation in the PRNA moiety.

[4] = Association constant with boric acid from CD peak decrement against borax/boric acid concentration, curve fitting; format: binding
Experimental: However, there is no direct evidence as yet that this change in base moiety orientation is induced by borate ester bond formation. Therefore, the dependency of the change in base moiety orientation on the concentration of borax (Na2B4O7) was investigated at pH 7.2. […] The association constant of 5′-NH2-Urd with boric acid was determined by plotting the decrement in peak height against the boric acid (borax) concentration, followed by curve fitting. Supposing that borax give 4 equivalents of boric acid in aqueous solution, the association constant of 5′-NH2-Urd with boric acid was calculated at 75 M^−1.
In addition to the above-mentioned borax, boric acid (B(OH)3) was also used and the addition test was carried out in the same manner. In this case, too, decreases in peak height were observed, and the association constant was calculated at 49 M^−1. In addition, changes in orientation due to ester formation were also observed with methylboric acid and phenylboric acid.
As is evident from FIG. 8a, almost the same change as that attained by addition of 50 mM of borax at pH 7.2 was obtained at pH 8.8 only by addition of 2 mM of borax. […] The association constant 5′-NH2-Urd with boric acid was calculated at 600 M^−1, which is greater by one order than at pH 7.2.

[5] = system: (T)8; test: Melting point (Tm) of complex with oligonucleotide by UV absorbance change, control run; format: binding; details: phosphate pH 7.2
Experimental: (§1) Specifically, the PRNA2 (octamer) (17) was mixed with the oligonucleotide octamer shown in Table 3, the melting point (Tm) was determined by measuring the resulting change in absorbance on a UV spectrum, and the ability of the PRNA2 (octamer) (17) to hybridize with a nucleic acid (complex forming ability) was evaluated from that melting point. Further, for examining the influence of boric acids on the PRNA2 (octamer)-DNA hybrid formation and on the stability thereof, melting point measurements were carried out using the PRNA2 (octamer) (17) and d(A)8 as the binding target oligonucleotide to the PRNA2, namely a complementary compound to (T)8, with and without addition of borax (20 mM), and the melting points were compared. A control run was carried out in the same manner using (T)8 as the binding target oligonucleotide in lieu of d(A) 8.

[6] = system: d(A)8; test: Melting point (Tm) of complex with oligonucleotide by UV absorbance change; format: binding; details: phosphate pH 7.2
Experimental: as §1

[7] = system: 5′-d(AAAAACCA)-3′; test: Melting temperature (Tm) of PRNA (octamer)-DNA hybrid by UV absorbance change; details: binding target 5′d(AAAAACCA)3′
Experimental: (§2) Specifically, the PRNA (octamer NH2-UIIUUUUU-Lys-OH) was mixed with each of oligonucleotide octamers specified in Table 6, the melting temperature (Tm) was determined by measuring the resulting change in absorbance on UV spectra, and the ability of the PRNA (octamer) to hybridize with the nucleic acid (complex forming ability) was evaluated based on the resultant melting temperature. Furthermore, the effects of a borate on the PRNA (octamer)-DNA hybrid formation and the stability thereof were investigated using the PRNA (octamer) and 5′-d(AAAAACCA)-3′, a complementary compound as its binding target oligonucleotide, and measuring the melting temperatures with and without addition of borax (20 mM) to the phosphate buffer and comparing them. A control experiment was carried out in the same manner using 5′-d(ACCAAAAA)-3′ as the binding target oligonucleotide in lieu of 5′-d(AAAAACCA)-3′.

[8] = system: 5′-d(ACCAAAAA)-3′; test: Melting temperature (Tm) of PRNA (octamer)-DNA hybrid by UV absorbance change, control experiment; format: binding; details: for Tm: binding target 5′d(ACCAAAAA)3′
Experimental: as §2

[9] = phosphate buffer (pH 7.2), no borax, Urd = 100% anti, 5′-NH2-IPU = 100% syn supposed

## Boc-AEG(5′U)-OH
[1]; 5.5 mM borax added, phosphate buffer pH 7.2
  proportion of syn orientation of the base moiety: 76 % syn
[1]; 5.5 mM borax, pH adjusted from 7.2 to 6.2
  proportion of syn orientation of the base moiety: 41 % syn
[1]; borate buffer (pH 7.2)
  proportion of syn orientation of the base moiety: 64 % syn
[1]; pH 6.0
  change of CD peak at about 270 nm / orientation upon addition of borax: almost no decrease in the relevant peak was observed
[1]; pH 8.8
  change of CD peak at about 270 nm / orientation upon addition of borax: very efficient increase in syn orientation proportion
[1]; [9]
  proportion of syn orientation of the base moiety: 39 % syn

## Poly(N^γ-(5′-deoxy-5′-uridyl)-L-glutamine) [PRNA1]
[2]; borax 6 times the amount of PRNA1
  amount of xylose giving perfect 1:1 complex formation: about 20 times that of the PRNA1
[2]; borax 6 times the amount of PRNA1, decrease from 1.03
  absorbance at 260 nm after addition of D(+)-xylose: 0.88
[2]; borax-containing phosphate buffer with poly(A)
  effect of D(+)-glucose in lieu of D(+)-xylose: the complex is formed
[2]; borax-free phosphate buffer pH 7.2, decrease from 1
  absorbance at 260 nm after addition of poly(A): 0.88
[2]; phosphate buffer with PRNA1 and poly(A)
  amount of borax restoring the original absorbance (complete dissociation of complex): about 3 times the amount of the PRNA1

## Boc-isoGln(5′U)-isoGln(5′I)-OH [U-I]
[1]; phosphate buffer (pH 7.2)
  Molar ellipticity ([θ]ext) at about 270 nm: 6600 deg·cm2/dmol
[1]
  Δ[θ]ext: 3300

## CC(C)(C)OC(=O)N[C@@H](CCC(=O)NC[C@H]1O[C@@H](n2ccc(=O)[nH]c2=O)[C@H](O)[C@@H]1O)C(=O)O [Boc-isoGln(5′U)-OH, N^α-t-butoxycarbonyl-N^5-(5′-deoxy-5′-uridyl)-L-isoglutamine]
[1]; borate buffer (pH 7.2)
  proportion of syn orientation of the base moiety: 56 % syn

## O=c1ccn([C@@H]2O[C@H](CO)[C@@H](O)[C@H]2O)c(=O)[nH]1 [Urd, uridine, reference compound]
[1]; borate buffer (pH 7.2)
  [θ]max: 7400 deg cm^2dmol^−1
  proportion of syn orientation of the base moiety: 27 % syn
[1]; phosphate buffer (pH 7.2)
  [θ]max: 9700 deg cm^2dmol^−1
  proportion of anti orientation of the base moiety: 100 % anti

## Boc-isoGln(5′U)-isoGln(5′I)-isoGln(5′U)-OH [U-I-U]
[1]
  change of [θ]ext / CD peak from phosphate buffer to borate buffer (borax): [θ]ext decreases

## Boc-isoGln(5′I)-isoGln(5′U)-OH [I-U]
[1]; borate buffer (pH 7.2)
  Molar ellipticity ([θ]ext) at about 270 nm: 1400 deg·cm2/dmol
[1]; phosphate buffer (pH 7.2)
  Molar ellipticity ([θ]ext) at about 270 nm: 4800 deg·cm2/dmol
[1]
  Δ[θ]ext: 3400

## NH2-UUUUUUUUTTTT-3′: chimeric molecule dodecamer, PRNA(Urd) octamer amide-bonded to thymidine tetramer
[3]; binding target d(A)12, 20 mM borax
  Tm: <0 °C
[3]; binding target d(A)12, 20 mM borax, listed as (U)8DNA(T)4
  Tm: < 0 °C
[3]; binding target d(A)12, no additive, phosphate buffer pH 7.2
  Tm: 42.5 °C
[3]; no additive
  Tm gain of the complex over the DNA-DNA complex: 19.3 °C
[1]
  change of [θ]ext / CD peak from phosphate buffer to borate buffer (borax): [θ]ext decreased

## NC[C@H]1O[C@@H](n2ccc(N)nc2=O)[C@H](O)[C@@H]1O [5′-NH2-Cyd, 5′-amino-5′-deoxycytidine]
[1]; borate buffer (pH 7.2)
  [θ]max: 4900 deg cm^2dmol^−1
[1]; phosphate buffer (pH 7.2)
  [θ]max: 8400 deg cm^2dmol^−1

## NC[C@H]1O[C@@H](n2ccc(=O)[nH]c2=O)[C@H](O)[C@@H]1O [5′-NH2-Urd, 5′-amino-5′-deoxyuridine]
[1]; 8 mM borax added, phosphate buffer pH 7.2
  proportion of syn orientation of the base moiety: 83 % syn
[1]; 8 mM borax, pH adjusted from 7.2 to 6.2
  proportion of syn orientation of the base moiety: 58 % syn
[1]; borate buffer (pH 7.2)
  Molar ellipticity ([θ]ext) at about 270 nm: 1600 deg·cm2/dmol
  [θ]max: 1600 deg cm^2dmol^−1
  proportion of syn orientation of the base moiety: 95 % syn
[1]; pH 6.0
  change of CD peak at about 270 nm / orientation upon addition of borax: almost no peak decreases were observed
[1]; pH 8.8
  change of CD peak at about 270 nm / orientation upon addition of borax: syn orientation is induced more effectively at pH 8.8
[1]; phosphate buffer (pH 7.2)
  Molar ellipticity ([θ]ext) at about 270 nm: 5100 deg·cm2/dmol
  [θ]max: 5100 deg cm^2dmol^−1
[1]; [9]
  proportion of syn orientation of the base moiety: 55 % syn and 54 % syn
[1]
  Δ[θ]ext: 3500
[4]; boric acid (B(OH)3) added instead of borax
  association constant with boric acid: 49 M⁻¹
[4]; pH 7.2, borax added, borax supposed to give 4 equivalents of boric acid
  association constant with boric acid: 75 M⁻¹
[4]; pH 8.8, borax added
  association constant with boric acid: 600 M⁻¹

## Boc-isoGln(5′U)-isoGln(5′U)-isoGln(5′U)-OH [U-U-U]
[1]
  change of [θ]ext / CD peak from phosphate buffer to borate buffer (borax): [θ]ext decreases

## Boc-isoGln(5′U)-isoGln(5′U)-OH [U-U]
[1]; borate buffer (pH 7.2)
  Molar ellipticity ([θ]ext) at about 270 nm: 1250 deg·cm2/dmol
[1]; phosphate buffer (pH 7.2)
  Molar ellipticity ([θ]ext) at about 270 nm: 12300 deg·cm2/dmol
[1]
  Δ[θ]ext: 11050

## 5′-aminoisopropylideneuridine [5′-NH2-IPU, reference compound]
[1]; phosphate buffer (pH 7.2)
  [θ]max: 1200 deg cm^2dmol^−1
[1]; [9]
  proportion of syn orientation of the base moiety: 100 % syn

## HCl.(isoGln(5′U))8-Lys-OH [PRNA2 (17)]
[5]; binding target (T)8, 20 mM borax
  Tm: <0 °C
[5]; binding target (T)8, no additive
  Tm: <0 °C
[6]; binding target d(A)8, 20 mM borax
  Tm: <0 °C
[6]; binding target d(A)8, 20 mM borax, listed as PRNA2 (octamer)
  Tm: below 0 °C
[6]; binding target d(A)8, no additive
  Tm: 52.8 °C

## Nc1ccn([C@@H]2O[C@H](CO)[C@@H](O)[C@H]2O)c(=O)n1 [Cytidine (Cyd), Cytidine, reference compound]
[1]; borate buffer (pH 7.2)
  [θ]max: 12200 deg cm^2dmol^−1
[1]; phosphate buffer (pH 7.2)
  [θ]max: 14200 deg cm^2dmol^−1

## Cc1cn([C@H]2C[C@H](O)[C@@H](CN)O2)c(=O)[nH]c1=O [5′-NH2-Thd [A], 5′-amino-5′-deoxythymidine, reference compound]
[1]; borate buffer (pH 7.2)
  Molar ellipticity ([θ]ext) at about 270 nm: 950 deg·cm2/dmol
[1]; phosphate buffer (pH 7.2)
  Molar ellipticity ([θ]ext) at about 270 nm: 600 deg·cm2/dmol
[1]
  Δ[θ]ext: −350

## NH2-isoGln(5′U)-isoGln(5′I)-isoGln(5′I)-isoGln(5′U)-isoGln(5′U)-isoGln(5′U)-isoGln(5′U)-isoGln(5′U)-Lys-OH [NH2UIIUUUUU-Lys-OH]
[7]; 20 mM borax
  Tm: <0 °C
[7]; 20 mM borax, listed as PRNA (octamer)
  Tm: lower than 0 °C
[7]; no additive, 1/30 M phosphate buffer
  Tm: 7.8 °C
[1]
  change of [θ]ext / CD peak from phosphate buffer to borate buffer (borax): marked decrease
[8]; 20 mM borax
  Tm: <0 °C
[8]; no additive
  Tm: 6.2 °C
  lowering of Tm with 5′-d(ACCAAAAA)-3′ in lieu of 5′-d(AAAAACCA)-3′: 1.6 °C
